The nature of assay [1]: Hair switch volume test (switches dosed, combed straight, dried overnight, image projection measured). Particulars: for % benefit: 2% solution; for Volume: same batch of switches, 0.2 ml of 2% solution; for Volume / volume (projection of the switch image on to the screen): combed straight, dried overnight; for volume (projection of the switch image on to the screen): 0.2 ml of 2% solution per 2 g switch. The procedure:
Dark brown European wavy #6 switches (from 2 different batches) of length 25 cm and weight 2 g were dosed with 0.2 ml each of 2% glucosamine.HCl salt solution. Control switches were wetted with water. All switches were combed straight and left to dry overnight. When dry the switches were combed straight and pictures taken. […] (Here volume refers to the projection of the switch image on to the screen and is given in mm^2).
Dark brown European wavy #6 switches of length 25 cm and weight 2 gms (from the same batch of switches), were dosed with 0.2 ml each of 2% solutions of various mono and diglucosamine salts. Control switches were treated with water.
All switches were combed straight and left to dry overnight.
When dry the switches were combed straight and pictures taken. […] (Here volume refers to the projection of the switch image on to the screen and is given in mm^2). The percentage benefit (i.e. increase in volume) with respect to control (water) is also given.

Assay [2] can be described thus: Half head test on a mannequin head, styled with a blow dryer. Particulars: 2% solution on left half vs water on right half; picture the day following styling. The procedure: FIG. 1 is an image of a mannequin head taken the day following a test performed with one half (right hand side) treated with water and the other half (left hand side) treated with 2% glucosamine.HCI salt solution and followed by styling with a blow dryer. A half head test on a mannequin head was performed with one half (right hand side) treated with water and the other half (left hand side) treated with 2% glucosamine.HCl salt solution. The head was styled with a blow dryer for volume up benefit. FIG. 1 is a picture taken the day following the styling.

Where [3] appears, read: Example 2, increase in volume with respect to control (water).

As to `N[C@H]1C(O)O[C@H](CO)[C@@H](O)[C@@H]1O.O=C(O)/C=C/C(=O)O` (some centres unmarked) [glucosamine fumarate], the “% benefit” value in assay [1] (setting [3]) is 18.5%. In assay [1] (Example 2), this compound yielded a Volume of 16802 mm^2.

Consider `NCC(=O)O.N[C@H]1C(O)O[C@H](CO)[C@@H](O)[C@@H]1O` (some centres unmarked) [glucosamine glycinate], for which the “% benefit” value in assay [1] (setting [3]) stood at 39.2%. In assay [1] (Example 2), this compound showed a Volume of 19748 mm^2.

Take `CC(O)C(=O)O.N[C@H]1C(O)O[C@H](CO)[C@@H](O)[C@@H]1O` (some centres unmarked) [glucosamine lactate]: the “% benefit” value in assay [1] (setting [3]) worked out at 33.6%. The compound further displayed a Volume in assay [1] (Example 2) of 18944 mm^2.

As for `N[C@H]1C(O)O[C@H](CO)[C@@H](O)[C@@H]1O.O=C(O)/C=C\C(=O)O` (some centres unmarked) [glucosamine maleate], in assay [1] (setting [3]), the “% benefit” value worked out at 30.1%. The compound also returned a Volume in assay [1] (Example 2) of 18450 mm^2.

For the compound `N[C@H]1C(O)O[C@H](CO)[C@@H](O)[C@@H]1O.O=C(O)CC(=O)O` (some centres unmarked) [glucosamine malonate], in assay [1] (setting [3]), the “% benefit” value worked out at 21.6%. The Volume in assay [1] (Example 2) was found to be 17244 mm^2.

With `N[C@H]1C(O)O[C@H](CO)[C@@H](O)[C@@H]1O.O=C(O)CCC(=O)O` (some centres unmarked) [glucosamine succinate], in assay [1] (setting [3]), the “% benefit” value is 13.5%. For the same compound, the Volume in assay [1] (Example 2) was determined as 16102 mm^2.

For the compound `Cl.N[C@H]1C(O)O[C@H](CO)[C@@H](O)[C@@H]1O` (some centres unmarked) [glucosamine•HCl, glucosamine hydrochloride], the “volume (projection of the switch image on to the screen)” value in assay [1] (Batch 1 switches) is given as 14236 mm^2; in assay [1] (Batch 2 switches), 16851 mm^2. In addition, the “% benefit” value in assay [1] (Batch 1 switches, increase in volume vs water control) was 6.7%; in assay [1] (Batch 2 switches, increase in volume vs water control), 7.3%. In assay [2], the “volumising benefit (visual comparison)” value is listed as “clearly evident”.

In the case of diglucosamine adipate, the “% benefit” value in assay [1] (setting [3]) is 28.3%. This compound also displayed a Volume in assay [1] (Example 2) of 18189 mm^2.

With diglucosamine aspartate, the “% benefit” value in assay [1] (setting [3]) came out at 39.5%. Also, the Volume in assay [1] (Example 2) amounted to 19780 mm^2.

For the compound diglucosamine fumarate, the “% benefit” value in assay [1] (setting [3]) stood at 38.0%. In addition, the Volume in assay [1] (Example 2) turned out to be 19575 mm^2.

With diglucosamine glutamate, the “% benefit” value in assay [1] (setting [3]) was 38.0%. The same compound yielded a Volume in assay [1] (Example 2) of 19575 mm^2.

As to diglucosamine glutarate, the “% benefit” value in assay [1] (setting [3]) came to 35.6%. This compound also yielded a Volume in assay [1] (Example 2) of 19234 mm^2.

With diglucosamine maleate, in assay [1] (setting [3]), the “% benefit” value stood at 34.3%. This compound also returned a Volume in assay [1] (Example 2) of 19053 mm^2.

diglucosamine malonate: the “% benefit” value in assay [1] (setting [3]) is recorded as 34.3%. In assay [1] (Example 2), the Volume was determined as 19053 mm^2.

Turning to diglucosamine pimelate, in assay [1] (setting [3]), the “% benefit” value worked out at 27.1%. This compound showed a Volume in assay [1] (Example 2) of 18021 mm^2.

With diglucosamine succinate, the “% benefit” value in assay [1] (setting [3]) came to 20.8%. In assay [1] (Example 2), this compound had a Volume of 17136 mm^2.

With “glucosamine 2-pyrrolidone-5-carboxylate [glucosamine PCA]”, the “% benefit” value in assay [1] (setting [3]) amounted to 37.5%. The same compound returned a Volume in assay [1] (Example 2) of 19505 mm^2.

Regarding glucosamine aspartate, the “% benefit” value in assay [1] (setting [3]) stood at 30.9%. Also, in assay [1] (Example 2), the Volume is 18566 mm^2.

On to glucosamine glutamate, for which the “% benefit” value in assay [1] (setting [3]) was determined as 30.9%. In assay [1] (Example 2), this compound displayed a Volume of 18563 mm^2.

For the compound glucosamine glutarate, in assay [1] (setting [3]), the “% benefit” value is listed as 9.1%. The Volume in assay [1] (Example 2) is listed as 15475 mm^2.

For glucosamine nicotinate, the “% benefit” value in assay [1] (setting [3]) was 41.6%. The same compound yielded a Volume in assay [1] (Example 2) of 20087 mm^2.

As for glucosamine pimelate, the “% benefit” value in assay [1] (setting [3]) was determined as 13.4%. The Volume in assay [1] (Example 2) came out at 16088 mm^2.

Source of the values: patent publication US10813868B2, “Method of improving hair volume” (priority 2014, dated 2020).
